Data from US6551793B1, “Carotenoid-associated proteins useful for high carotenoid accumulation and production in plants and other organisms” (Yissum Research Development Company of the Hebrew …, priority 1996, dated 2003).

How the values were obtained:
Type in all cases: cell-based, Cucumis sativus
Psy mRNA = test: In vitro flower bud culture, Northern blot of Psy mRNA in corollas
Protocol: (§1) Young flower buds were cultured in vitro in the presence (GA) or the absence (C) of 100 μM GA3 for up to 48 hours. Northern and Western blot analyses of corollas, cultured for the indicated periods of time, were performed. The Northern blots (25 μg total RNA/lane) were hybridized with ^32P-labeled DNA inserts from CHRC (CHRC), […] (Psy), and 18s rDNA (18S). Western blot analysis (bottom panel of A) was performed using antibodies against CHRC protein (25 μg total protein/lane). The results of the CHRC Northern blot analyses are also shown graphically relative to the mRNA level of the untreated corollas at zero time (0) (arbitrary value of 1).
(§2) Flower buds were cultured in the presence of 100 μm GA3 (GA), 100 μg/ml paclobutrazol following 2 hours of pretreatment with 100 μg/ml paclobutrazol (P), 100 μg/ml paclobutrazol +100 μm GA3 following 2 hours of pretreatment with 100 μg/ml paclobutrazol (P/GA), 100 μM ABA (ABA), or no phytohormones (C). Total RNA was extracted from corollas after 2 hours of treatment. Northern blot analyses were performed and probed as described in the legend to FIG. 7.
(§3) Total RNA and protein were extracted from cucumber corollas of flower buds cultured for 6 hours in the presence of 100 μM GA3 (GA), 50 μM CHX following 2 hours of pretreatment with 50 μM CHX (CHX/GA), or no phytohormones (C). Northern (CHRC, Psy, and 18S) and Western (bottom panel) blot analyses were performed as described above.
This example describes plant material and conditions for in vitro flower bud culture. C. sativus L. plants (cultivar Shimahon, obtained from Zeraim Gadera, Israel) were grown under standard greenhouse conditions. In vitro culture of flower buds was performed at 23° C., under constant light from cool white fluorescent lamps with a photosynthetic photon flux density of 80 μmol/m^2 g, as described previously. Briefly, buds at developmental stage 1 (˜8 mm in length, 120 hours before anthesis) were collected and rinsed several times with sterile water. Buds were then placed for 24 hours on a perforated Parafilm (American National Can, Greenwich, Conn.) covering a Petri dish filled with double-distilled sterile water, such that only the bases of the buds were in contact with the liquid. […]
This example describes conditions used for RNA isolation and Northern blot analysis. […] Autoradiograms were quantified by scanning suitably exposed films in a densitometer (Molecular Dynamics, Sunnyvale, Calif.). The amount of RNA loaded onto the gels was standardized by optical measurement, by quantitation of the ethidium bromide fluorescence of cytoplasmic rRNA. and by the level of hybridization with a DNA fragment coding for cytoplasmic 18S RNA.

CHRC mRNA = test: In vitro flower bud culture, Northern blot of CHRC mRNA in corollas
Protocol: as §1, §2, §3
In FIG. 10, flower buds were cultured for 2 hours without (0) or with various concentrations of GA3. Total RNA was isolated from corollas, and a Northern blot was probed as above. The results of the CHRC Northern blot analyses are also shown graphically relative to the mRNA level of control corollas cultured without GA3 (arbitrary value of 1).
(§4) This example describes plant material and conditions for in vitro flower bud culture. C. sativus L. plants (cultivar Shimahon, obtained from Zeraim Gadera, Israel) were grown under standard greenhouse conditions. In vitro culture of flower buds was performed at 23° C., under constant light from cool white fluorescent lamps with a photosynthetic photon flux density of 80 μmol/m^2 g, as described previously. Briefly, buds at developmental stage 1 (˜8 mm in length, 120 hours before anthesis) were collected and rinsed several times with sterile water. Buds were then placed for 24 hours on a perforated Parafilm (American National Can, Greenwich, Conn.) covering a Petri dish filled with double-distilled sterile water, such that only the bases of the buds were in contact with the liquid. Following equilibration, buds were transferred to a fresh Petri dish (zero time for the experiments) and treated with GA3, ABA, paclobutrazol, or CHX, as specified in the figure legends.
This example describes conditions used for RNA isolation and Northern blot analysis. Total RNA from corollas of cucumber flower buds was isolated as described previously. RNA (15 and 25 μg) was fractionated through a 1.2% formaldehyde gel and transferred to a Hybond-N^− filter (Amersham Corp.). A random priming kit (Boehringer Mannheim) was used to radioactively labeled DNA probes. The blots were hybridized with ^32P-labeled cucumber CHRC cDNA (Vishnevetsky, et al., Plant Journal, 10: 1111-1118 (1996)) and reprobed with melon phytoene synthase (PSY) cDNA (MEL5), provided by D. Grierson of the Nottingham University, UK. The hybridization for analysis of CHRC expression was carried out in 0.263 M Na2HPO4, 7% SDS, […], 1% BSA for 16 hours at 60° C., and the washes were performed in 2×SSC/0.1% SDS at 50° C. followed by 2×SSC/0.1% SDS at 55° C., for 20 minutes each. Hybridization with the MEL5 probe was carried out at 55° C. using the same procedure. Following the hybridization, the blots were washed in 5×SSC/0.1% SDS at 45° C. for 20 minutes followed by 5×SSC/0.1% SDS at 50° C. and 2×SSC/0.1% SDS at 50° C. for 20 minutes each. […]

CHRD = test: In vitro flower bud culture, Western blot of CHRD in corollas
Protocol: CHRD levels in corollas were analyzed by western blotting (10 μg of total protein per lane) using antibodies against CHRD and horseradish peroxidase anti-rabbit IgG in an enhanced chemiluminescence detection system. FIG. 14B is a Western blot analysis of corollas (50 μg of total protein per lane) cultured for the indicated periods with (+) or without (−) GA3. The blot was decorated with antibodies against CHRD and alkaline phosphatase anti-rabbit 1 gG.
(§5) In FIG. 15A, antibodies against CHRD or CHRC were used in a western blot analysis of CHRD and CHRC levels, respectively, in corollas cultured for 72 hours in the presence (E) or absence (C) of ethylene (50 μg of total protein per lane). In FIG. 15B, flowers were enclosed in aluminum foil in the greenhouse for 3 days and CHRD levels in etiolated (D) and control, nonetiolated (L) corollas were analyzed by western blotting (50 μg of total protein per lane).
as §4
CHRD protein was isolated from Cucumis sativus as a minor component, immunologically characterised and analyzed in terms of the regulation of its expression by developmental signals using methods and conditions described above for CHRC. […] Carotenoids are known to accumulate in dark.

CHRC protein = test: In vitro flower bud culture, Western blot of CHRC protein in corollas
Protocol: as §5, §4

[1] = system: GUS reporter gene expression; test: Transient expression of reporter gene GUS under CHRC promoter versus 35S CaMV promoter
Source text: FIGS. 1A and 1B show comparative photographs of cucumber flowers petals showing transient expression of the reporter gene GUS using CHRC promoter (FIG. 1A) or known 35S CaMV promoter (FIG. 1B).
The promoter containing CHRC upstream region was about 70% as efficient as the 35S CaMV promoter in cucumber petals and about 60% as efficient in leaves, fruits and stems. The CHRC promoter's efficiency in another representative of the cucurbit family, namely in melon, was similar to the efficiency found in cucumber.
In cucumber-petals, the CHRC upstream region was about 70% as efficient as the 35S CaMV promoter. In leaves, fruits and stems, the CHRC promoter was about 60% as efficient as 35S CaMV. Promoter's efficiency in melon was similar to that observed in cucumber.

[2] = 50 μM CHX with 100 μM GA3, 6 hours
[3] = dose response 1×10^−8 to 1×10^−4 M GA3, 2 hours
[4] = ethylene, corollas cultured for 72 hours

`CC(C)(C)[C@@H](O)[C@@H](Cc1ccc(Cl)cc1)n1cncn1` (racemic) [paclobutrazol] was tested, and the “Effect on Psy mRNA levels” value (Psy mRNA; 100 μM ABA or 100 μg/ml paclobutrazol, 2 hours of treatment) was “Neither ABA nor paclobutrazol markedly affected”, the “Decrease in CHRC mRNA levels relative to control untreated corollas” value (CHRC mRNA; 100 μg/ml paclobutrazol after 2 hours of pretreatment, 2 hours of treatment) was 4 fold and the “CHRD level per unit protein, down-regulation compared with control untreated corollas” value (CHRD; flower buds cultured for 72 hours) was 4.8±0.2 times.

For `C[C@@H]1C[C@@H]([C@H](O)CC2CC(=O)NC(=O)C2)C(=O)[C@@H](C)C1` [CHX, cycloheximide], the “Effect on Psy mRNA levels” value (Psy mRNA; 50 μM CHX, 6 hours) was “unaffected”, the “Effect on up-regulation of CHRC mRNA by GA3” value (CHRC mRNA; [2]) was “did not prevent” and the “Effect of CHX alone on CHRC transcript accumulation” value (CHRC mRNA; CHX alone) was “did not affect”. The “Effect on increase in CHRC protein levels in GA3-treated buds” value (CHRC protein; [2]) was “successfully abolished”.

`C=C1C[C@]23C[C@@]1(O)CC[C@H]2[C@@]12C=C[C@H](O)[C@@](C)(C(=O)O1)[C@H]2[C@@H]3C(=O)O` [GA3, Gibberellin A3] was tested, and the “Effect on Psy mRNA levels” value (Psy mRNA; GA3 treatment, first 45 hours of corolla development) was “not affected”, the “CHRC mRNA level in treated versus control corollas” value (CHRC mRNA; 100 μM GA3, after 20 minutes of treatment) was “approximately twice as high” and the “CHRC transcript accumulation with exogenous GA3 added to paclobutrazol” value (CHRC mRNA; 100 μg/ml paclobutrazol + 100 μm GA3 after 2 hours paclobutrazol pretreatment) was “up-regulated CHRC transcript accumulation to the level of GA3-treated corollas”. For the same molecule, the “Concentration at which CHRC was strongly up-regulated” value (CHRC mRNA; [3]) was 10^−5−10^−4 M, the “Lowest concentration sufficient to markedly elevate basal CHRC mRNA levels” value (CHRC mRNA; [3]) was 10^−7 M and the “Time to detectable increase in CHRC mRNA level” value (CHRC mRNA; response to GA3, early time points (data not shown)) was 10 to 20 min. For the same molecule, the “CHRC per unit of protein in treated versus control corollas” value (CHRC protein; 100 μM GA3, after 2 hours of treatment) was “approximately 2.5 times”, the “CHRD level in treated versus untreated buds” value (CHRD; GA3, after only 2 hours) was “markedly higher” and the “CHRD accumulation with GA3 in the culture medium” value (CHRD; GA3, in vitro bud culture, 72 hours) was “enhanced accumulation”.

With `C=C` [ethylene] the “CHRC level in treated corollas versus controls” value (CHRC protein; [4]) was “lower than that in controls” and the “CHRD level per unit protein following treatment” value (CHRD; [4]) was “down-regulated”.

B1: CHRC upstream region: sequenced upstream region of the cucumber CHRC gene with strong promoter activity, SEQ ID NO:10 (nucleic acid, listed as Cucumis sativus)
DNA: AAGCTTTACAAATTAGGGTTACTTTATTCATTTTCATCCATTCTCTTTATTGTTAAATTTTGTACATTTATTCAATAATATTATATGTTTATTACAAATTCTCACTTTCTTATTCATACCTATTCACTCAAGCCTTTACCATCTTCCTTTTCTATTTCAATACTATTTCTACTTCATTTTTCACGTTTTTAACATCTTTCTTTATTTCTTGTCCACTTCGTTTAGGGATGCCTAATGTCCCAAATTTCATCTCTCGTAGTAACACAAAACCAATGTAATGCTACTTCTCTCTACATTTTTAATACAAATAAAGTGAAACAAAATATCTATAAATAAACAAATATATATATTTTGTTAGACGCTGTCTCAACCCATCAATTAAAAAATTTTGTTATATTTCTACTTTACCTACTAAATTTGTTTCTCATATTTACCTTTTAACCCCCACAAAAAAAAATTATAAAAAAGAAAGAAAAAAGCTAAACCCTATTTAAATAGCTAACTATAAGATCTTAAAATTATCCTCATCAGTGTATAGTTTAATTGGTTATTAACTTATAACATTATATATCTATGACATATACTCTCTCCTAGCTATTTCTCACATTTTTTAACTTAAGAAAATAGTCATAACATAGTCTAAAATTCAAACATCCACATGCTCTAATTTGATTAACAAAAAGTTAGAAATATTTATTTAAATAAAAAAGACTAATAAATATATAAAATGAATGTTCATACGCAGACCCATTTAGAGATGAGTATGCTTTCACATGCTGAGATTATTTTCAAAACTAAGGTTGTAGCAATATTAAATCAATAAAATTATTATAAATAACAAAATTAACCTGCTCGTGTTTGCTGTATATGGGAGGCTACAAAATAAATTAAACTAAAGATGATTATGTTTTAGACATTTTTTCTATCTGTATTAGTTTATACATATTAATTCAGGAGCTGCACAACCCAATTCTATTTTCGTTCCTTGGTGGCTGGGTTTCTCACAAGGTTCAATAGTCAATATTAGGTTTTATTGGACTTTTAATAGTATCAAACAAATCTATGTGTGAACTTAAAAATTGTATTAAATATTTAGGGTAACCTGTTGCCGTTTTTAGAATAATGTTTCTTCTTAATACACGAAAGCGTATTGTGTATTCATTCATTTGGCGCCTCACATGCTTCGGTTGGCTCGCTTTAGTCTCTGCCTTCTTTGTATATTGTACTCCCCCTCTTCCTATGCCACGTGTTCTGAGCTTAACAAGCCACGTTGCGTGCCATTGCCAAACAAGTCATTTTAACTTCACAAGGTCCGATTTGACCTCCAAAACAACGACAAGTTTCCGAACAGTCGCGAAGATCAAGGGTATAATCGTCTTTTTGAATTCTATTTCTCTTTATTTAATAGTCCCTCTCGTGTGATAGTTTTTAAAAGATTTTTAAAACGTAGCTGCTGTTTAAGTAAATCCCAGTCCTTCAGTTTGT
With B1 the “Efficiency relative to the 35S CaMV promoter” value ([1]; cucumber leaves, fruits and stems) was “about 60%” and the “Efficiency relative to the 35S CaMV promoter” value ([1]; cucumber petals) was “about 70%”.
